Reference: ChEMBL document CHEMBL4400561, “Isolation, structural elucidation, and insights into the anti-inflammatory effects of triterpene saponins from the leaves of Stauntonia hexaphylla” (Bioorg Med Chem Lett, 2019)

Key:
RAW264.7 [1] = test: Anti-inflammatory activity in mouse RAW264.7 cells assessed as inhibition of LPS-induced NO production preincubated for 1 hr followed by LPS-stimulation and measured after 18 hrs by Griess reagent-based assay; assay type: functional, cell-based
RAW264.7 [2] = test: Cytotoxicity against mouse RAW264.7 cells at anti-inflammatory IC50 after 19 hrs by MTT assay; assay type: cell-based; details: raw264.7, 19 h
RAW264.7 [3] = test: Anti-inflammatory activity in mouse LPS-stimulated RAW264.7 cells assessed as decrease in PGE2 levels at preincubated for 1 hr followed by LPS-stimulation and measured after 12 hrs by ELISA; assay type: functional, cell-based
RAW264.7 [4] = test: Anti-inflammatory activity in mouse LPS-stimulated RAW264.7 cells assessed as decrease in IL1beta levels preincubated for 1 hr followed by LPS-stimulation and measured after 12 hrs by ELISA; assay type: functional, cell-based
RAW264.7 [5] = test: Anti-inflammatory activity in mouse LPS-stimulated RAW264.7 cells assessed as decrease in IL6 levels preincubated for 1 hr followed by LPS-stimulation and measured after 12 hrs by ELISA; assay type: functional, cell-based
RAW264.7 [6] = test: Anti-inflammatory activity in mouse LPS-stimulated RAW264.7 cells assessed as decrease in TNFalpha levels preincubated for 1 hr followed by LPS-stimulation and measured after 12 hrs by ELISA; assay type: functional, cell-based
RAW264.7 [7] = test: Anti-inflammatory activity in mouse LPS-stimulated RAW264.7 cells assessed as decrease in iNOS protein levels preincubated for 1 hr followed by LPS-stimulation and measured after 16 hrs by Western blot analysis; assay type: functional, cell-based
RAW264.7 [8] = test: Anti-inflammatory activity in mouse LPS-stimulated RAW264.7 cells assessed as decrease in COX2 protein levels preincubated for 1 hr followed by LPS-stimulation and measured after 16 hrs by Western blot analysis; assay type: functional, cell-based

With C[C@@H]1O[C@@H](O[C@H]2[C@H](O[C@H]3CC[C@]4(C)[C@H]5CC=C6[C@@H]7CC(C)(C)CC[C@]7(C(=O)O)CC[C@@]6(C)[C@]5(C)CC[C@H]4C3(C)C)OC[C@H](O[C@@H]3O[C@H](CO)[C@@H](O)[C@H](O)[C@H]3O)[C@@H]2O)[C@H](O)[C@H](O)[C@H]1O [HEDERACOLCHISIDE A1] the IC50 (RAW264.7 [1]) was 590 nM, the Activity (RAW264.7 [2]) was “Non-Toxic” and the inhibition (RAW264.7 [3]) was “Dose-dependent effect”. For the same compound, the inhibition (RAW264.7 [4]) was “Dose-dependent effect”, the inhibition (RAW264.7 [5]) was “Dose-dependent effect” and the inhibition (RAW264.7 [6]) was “Dose-dependent effect”. For the same compound, the inhibition (RAW264.7 [7]) was “Dose-dependent effect” and the inhibition (RAW264.7 [8]) was “Dose-dependent effect”.
